Laboratory results published in patent US20040121965A1, “Method of treating resistant tumors” (Wyeth Holdings Corporation, priority 2002, published 2004).
Where two headings read alike, the source gives them in different places.

Columns and labels:
KB-8-5 (MDR1+) = experiment: Cell survival assay (SRB), KB-8-5 (MDR1+); details: for IC50: Homo sapiens; for RR, relative resistance: IC50 KB-8-5 / IC50 KB-3-1, Table 3
KB-3-1 = experiment: Cell survival assay (SRB), KB-3-1; format: cell-based, human
In short: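 Cells were exposed to serially diluted compound in duplicate for 3 days. Survival was read as protein content by SRB (TCA fixation 1 hr at 4 °C, 0.04% SRB stain, dissolved in 10 mM Tris, absorbance). KB-3-1 was grown in 20% FCS. IC50 is the concentration giving 50% growth inhibition.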

KB-HTI-4.0 = experiment: Cell survival assay, KB-3-1 line made resistant to Example 129 (KB-HTI-4.0); format: cell-based, human; details: for IC50: KB-3-1 line made resistant to Example 129, Table 8, read-out: KB-HTI-4.0 IC50; for (RR) relative resistance vs. parental cells: KB-HTI-4.0 vs KB-3-1
Text: (§1) Cells lines with previously known mechanisms of resistance. […] Res. 8: 207-218,1996); KB-3-1 (parental derived from an epidermoid carcinoma), KB-8.5, KB-V1 (Akiyama S-I, Fojo A, Hanover J A, Pastan I, Gottesman M M. Isolation and genetic characterization of human KB cell lines resistant to multiple drugs. Somatic Cell Mol. Gen., 11: 117-126,1985; Shen D-W, Cardarelli C, Hwang J, Cornwell M, Richert N, Ishii S, Pastan I, Gottesman MM. […] J. Biol. Chem., 261: 7762-7770, 1986); and HL-60 (parental derived from human leukemia) and HL60/AR (McGrath T., Center M. S. Adriamycin resistance in HL60 cells in the absence of detectable P-glycoprotein. Biochem. Res. Commun., 145:1171-1176,1987); A549 and A549.EpoB40 (He L., Yang C.-P.H., Horwitz S. B. Mutations in p-tubulin map to domains involved in regulation of microtubule stability in epothilone-resistant cell lines. Molecular Cancer Therapeutics. 1: 3-10, 2001). HCT-15 human colon carcinoma and DLD-1 human colon carcinoma are obtained from American Tissue Culture Collection. The MX-1W carcinoma is a Wyeth variant orginally obtained as MX-1 breast carcinoma from the National Cancer Institute. Cell lines selected for resistance to Representative Example 129. KB-3-1 cells are selected for resistance to Example 129 by chronically exposing cells to increasing concentrations of Example 129.
(§2) 2.2. Cell Survival Assay: Standard Pharmacological Test Procedure. The concentration of candidate inhibitor required to inhibit 50% of cell growth (IC50) is done according to previously reported methods. […] Compounds are serially diluted into media as 2× stocks and 100 μl added to cells in duplicate. Compounds are incubated with cells for 3 days. At the end of the incubation period the sulforhodamine B (SRB) assay, which measures protein content as an assessment of cell survival, is performed as described previously (Skehan P, Storeng R, Scudiero D, Monks A, McMahon J, Vistica D, Warren J T, Bokesch H, Kenney S, Boyd MR. New calorimetric cytotoxicity assay for anticancer-drug screening. J Natl Cancer Inst 1990 Jul 4;82(13):1107-12) with some modification as follows. For KB-3-1 cells with 20% FCS, media is gently decanted and replaced with 200 μl of serum-free media mixed with cold 50% TCA for a final concentration of 10% TCA. The plates are incubated for 1 hr at 4° C., followed by washing 5 times in cold distilled water, then air dried overnight. The fixed cells are stained for 10 min with 80 μl of 0.04% SRB solution prepared in 1% glacial acetic acid. Stain is discarded and plates washed 5 times in 1% glacial acetic acid, then air-dried until completely dry. Stained cell product is dissolved in 150 μl of 10 mM Trizma Base and placed on a shaker for 20 minutes until fully dissolved. Absorbance is read on a Victor V multi-label plate reader (Perkin Elmer, Gaithersburg, Md.).
Cells are selected for resistance to Example 129 to understand the frequency and mechanistic basis of resistance.

KB-V1 (MDR1++) = experiment: Cell survival assay (SRB), KB-V1 (MDR1++); details: for IC50: Homo sapiens; for RR, relative resistance: IC50 KB-V1 / IC50 KB-3-1, Table 3
KB-PTX-15+099 = experiment: Cell survival assay, KB-PTX-15+099 (paclitaxel-resistant, non-MDR); format: cell-based, human; details: for IC50: KB-PTX-15+099, Table 6, read-out: KB-PTX-15+099 IC50; for Average Relative Resistance (RR): IC50 KB-PTX-15+099 / IC50 KB-3-1, less than 1 = increased sensitivity
[1] = tested on: Human Melanoma Carcinoma Lox; details: staged LOX xenograft; at MTD ('<': MTD not achieved); days 11-15
Protocol: 2.4. Growth of Tumors in Nude Mice. […] In these experiments, xenografts are implanted subcutaneously into the flanks of nude mice. […] Relative tumor mass compared to controls are assessed during the 21-day post-staging period.
Groups of 5 female nu/nu mice are injected with 1.5×10^6 KB-3-1 (A) or Lox cells (B). […] Relative tumor growth is determined during the experiment and % T/C calculated. Statistical analyses are Student's t-test of treated time points vs. vehicle (*, P<0.05; **, P<0.01)

tumor cell lines = experiment: cells; format: cell-based; details: Five micromolar
Text: as §1, §2

[2] = Homo sapiens, KB 3-1, 72 h, amount of drug needed to kill 50% of cells after three days continuous exposure, Table 11, read-out: IC50 in parental cell line KB-3-1
[3] = MDR1, read-out: In vitro IC50 (nM) KB85
[4] = Homo sapiens, KB 3-1, KB-3-1 cells (paclitaxel-sensitive parent), read-out: In vitro IC50 (nM) KB-3-1
[5] = read-out: In vitro IC50 (nM) KBV1

Compound | IC50 (KB-3-1; [2]) [nM] | Activity in nude mice animal model (% T/C @ MTD on days 11-15) LOX [1] | Ratio KB85/KB (KB-8-5 (MDR1+)) | IC50 (KB-8-5 (MDR1+); [3]) [nM] | IC50 (KB-3-1; [4]) [nM] | Ratio KBV1/KB (KB-V1 (MDR1++)) | IC50 (KB-V1 (MDR1++); [5]) [nM] | further results
CC(=O)O[C@@]12CO[C@@H]1C[C@H](O)[C@@]1(C)C(=O)[C@H](O)C3=C(C)[C@@H](OC(=O)[C@H](O)[C@@H](NC(=O)OC(C)(C)C)c4ccccc4)C[C@@](O)([C@@H](OC(=O)c4ccccc4)[C@H]21)C3(C)C [docetaxel, reference compound] | 0.6 | – | – | – | – | – | – | IC50 (KB-8-5 (MDR1+); MDR1, read-out: KB-8-5 (MDR1+) IC50, nM (N)): 9.7 ± 6.6 nM; RR, relative resistance (KB-8-5 (MDR1+)): 18; resistance of KB-8-5 cells (KB-8-5 (MDR1+); KB-8-5 (KB-85) vs KB-3-1, in vitro): 18 fold; IC50 (KB-3-1; Homo sapiens, KB-3-1, Table 6, read-out: KB-3-1 IC50): 0.594 ± 0.098 nM; IC50 (KB-3-1; Homo sapiens, KB-3-1 parental, Table 3, read-out: KB-3-1 IC50, nM (N)): 0.55 ± 0.45 nM; IC50 (KB-3-1; Homo sapiens, KB-3-1 parental, Table 8, read-out: KB-3-1 IC50): 0.44 ± 0.2 nM; IC50 (KB-HTI-4.0; Homo sapiens): 1.25 ± 0.76 nM; (RR) relative resistance vs. parental cells (KB-HTI-4.0): (3); IC50 (KB-V1 (MDR1++); read-out: KB-V1 (MDR1++) IC50, nM (N)): 368 ± 257 nM; RR, relative resistance (KB-V1 (MDR1++)): 669; IC50 (KB-PTX-15+099; Homo sapiens): 4.49 ± 1.91 nM; Average Relative Resistance (RR) (KB-PTX-15+099): (7.6); resistance of KB-PTX-15+099 cells (KB-PTX-15+099; vs KB-3-1): 7.6 fold
CC[C@H](C)[C@@H]([C@@H](CC(=O)N1CCC[C@H]1[C@H](OC)[C@@H](C)C(=O)N[C@@H](Cc1ccccc1)c1nccs1)OC)N(C)C(=O)[C@@H](NC(=O)[C@H](C(C)C)N(C)C)C(C)C [dolastatin-10] | – | – | – | – | – | – | – | RR, relative resistance (KB-8-5 (MDR1+)): 7.1; IC50 (KB-3-1; KB-3-1, Table 6, read-out: KB-3-1 IC50): 0.041 ± 0.01 nM; IC50 (KB-3-1; KB-3-1 parental, Table 8, read-out: KB-3-1 IC50): 0.03 ± 0.02 nM; IC50 (KB-HTI-4.0): 0.83 ± 0.33 nM; (RR) relative resistance vs. parental cells (KB-HTI-4.0): (28); RR, relative resistance (KB-V1 (MDR1++)): 573; Average Relative Resistance (RR) (KB-PTX-15+099): (0.30); IC50 (KB-PTX-15+099): 0.012 ± 0.004 nM; increased sensitivity of KB-PTX-15+099 cells (KB-PTX-15+099; vs KB-3-1): 3.4 fold
CN[C@H](C(=O)N[C@H](C(=O)N(C)[C@H](/C=C(\C)C(=O)O)C(C)C)C(C)(C)C)C(C)(C)c1cccc(Cl)c1 [Example 2, 3-Chloro-N,β,β-trimethyl-L-phenylalanyl-N^1-[(1S,2E)-3-carboxy-1-isopropyl-2-butenyl]-N^1,3-dimethyl-L-valinamide] | 1.1 | 9% | 2.8 | 3.2 | 1.14 | 80.0 | 91 | –
CC/C(=C\[C@H](C(C)C)N(C)C(=O)[C@@H](NC(=O)[C@@H](NC)C(C)(C)c1ccccc1)C(C)(C)C)C(=O)O [Example 78, N,β,β-Trimethyl-L-phenylalanyl-N^1-[(1S,2E)-3-carboxy-1-isopropyl-2-pentenyl]-N 1,3-dimethyl-L-valinamide] | 5.4 | 17% | 2.5 | 13.7 | 5.4 | 94.9 | 512 | –
CN[C@H](C(=O)N[C@H](C(=O)N(C)[C@H](/C=C(\C)C(=O)O)C(C)C)C(C)C)C(C)(C)c1ccccc1.O=C(O)C(F)(F)F [Example 105, N,β,β-trimethyl-L-phenylalanyl-N^1-[(1S,2E)-3-carboxy-1-isopropyl-2-butenyl]-N^1-methyl-L-valinamide Trifluoroacetic Acid] | 5.2 | 8% | 2.1 | 11.1 | 5.25 | 54.9 | 288 | –
CN[C@H](C(=O)N[C@H](C(=O)N(C)[C@H](/C=C(\C)C(=O)O)C(C)C)C(C)(C)C)C(C)(C)c1ccc(C)c(C)c1 [Example 14, N,β,β,3,4-Pentamethyl-L-phenylalanyl-N^1-[(1S,2E)-3-carboxy-1-isopropyl-2-butenyl]-N^1,3-dimethyl-L-valinamide] | 0.4 | 2% | 2.8 | 1.13 | 0.408 | 95.6 | 39 | –
CN[C@H](C(=O)N[C@H](C(=O)N(C)[C@H](/C=C(\C)C(=O)O)C(C)C)C(C)(C)C)C(C)(C)c1ccc(OC)cc1 [Example 57, N,O,β,β-tetramethyl-L-tyrosyl-N^1-[(1S,2E)-3-carboxy-1-isopropyl-2-butenyl]-N^1,3-dimethyl-L-valinamide] | 1.4 | <1^4% | 2.9 | 4.1 | 1.4 | 102.0 | 142 | –
CN[C@H](C(=O)N[C@H](C(=O)N(C)[C@H](C[C@@H](C)C(=O)O)C(C)C)C(C)(C)C)C(C)(C)c1ccccc1 [Example 124, N,β,β-trimethyl-L-phenylalanyl-N^1-[(1R,3R)-3-carboxy-1-isopropylbutyl]-N^1,3-dimethyl-L-valinamide] | 8.6 | 62% | 2.2 | 18.9 | 8.6 | 153.0 | 1320 | –
COc1ccc(C(C#N)(CCCCCN2CCc3cc(OC)c(OC)cc3C2)Sc2ccc(C)cc2)cc1OC (centres unmarked) | – | – | – | – | – | – | – | effect on cell growth when given alone (tumor cell lines; KB-3-1, KB-85, KB-V1 (Table 4)): # has no inhibitory effect on cell growth when given alone. Data are the mean of two experiments.; effect on cell growth when given alone (tumor cell lines; MX-1W, DLD-1, HCT-15 (Table 2)): # Five micromolar 7-(6,7-dimethoxy-3,4-dihydro-1H-isoquinolin-2-yl)-2(3,4-dimethoxy-phenyl)-2-p-tolysulfanyl-heptanenitrile has no inhibitory effect on cell growth when given alone.
CCOC(=O)/C(C)=C/[C@H](C(C)C)N(C)C(=O)[C@@H](NC(=O)[C@@H](NC)C(C)(C)c1ccccc1)C(C)(C)C [Example 133, Ethyl (E,4S)4-[((2S)-3,3-dimethyl-2-{[(2S)-3-methyl-2-(methylamino)-3-phenylbutanoyl]amino}butanoyl)(methyl)amino]-2,5-dimethyl-2-hexenoate] | 34 | 1% | 14.5 | 499 | 34 | 54.5 | 1870 | –
